Results on 36 molecules are retold here after patent US12350270B2, “Antimalarial agents” (Merck Sharp & Dohme LLC, priority 2019, dated 2025).

pEC50: −log10 of the molar value.

The first test concerns parasites (ring stage, in human red blood cell culture). Description: Parasite LDH growth assay (antiparasite potency, Parasite Assay). It counts as cell-based, Plasmodium falciparum. As to conditions: 0.7% rings, 2% haematocrit, 72 hours at 37° C., LDH readout of parasite growth. The method, then: Assessing Antiparasite Potency in a Parasite LDH Growth Assay (Parasite Assay)
The parasite stock was maintained at 4% haematocrit in RPMI-Hepes media buffered with sodium bicarbonate and supplemented with 5% heat inactivated human serum and 0.5% albumax.
On the day of assay set up, a blood smear of the parasite culture was Giemsa stained and counted. The parasitemia was adjusted to 0.7% rings and the haematocrit was diluted to 2% in RPMI-Hepes media buffered with sodium bicarbonate and supplemented with 5% heat inactivated human serum and 0.5% albumax. 30 ul of diluted parasites are then added into 10 ul of media+compound in pre-prepared Greiner TC assay plates. Parasite assay plates were placed in gassed humidified boxes in single layer and allowed to incubate at 37° C. for 72 hours. After 72 hours growth, assay plates are sealed with parafilm and frozen flat, in single file at −80° C. overnight. On the following day, assay plates are allowed to thaw at room temperature for 4 hours to which an LDH assay is performed to measure parasite growth.
In the case of `CCC1(CC)CC(=O)N([C@@H]2CCOc3ccc(C(=O)NC4c5cc(F)ccc5OCC4(C)O)cc32)C(=N)N1` (single isomer, unassigned) [Example 226A], the pEC50 (commonly −log10 of the EC50, conventionally taken in molar units) is 8.59. As to `CCC1(CC)CC(=O)N([C@@H]2CCOc3ccc(C(=O)NC4c5cc(F)ccc5OCC4(C)O)cc32)C(=N)N1` (single isomer, unassigned) [Example 226B], the pEC50 is 7.16. On the same count and under the same terms, for `CCC1(CC)CC(=O)N([C@@H]2CCOc3ccc(C(=O)NC4c5cc(F)ccc5OCC4(C)O)cc32)C(=N)N1` (single isomer, unassigned) [Example 226C] the value was 6.56. On the same count and under the same terms, for `CCC1(CC)CC(=O)N([C@@H]2CCOc3ccc(C(=O)NC4c5cc(F)ccc5OCC4(C)O)cc32)C(=N)N1` (single isomer, unassigned) [Example 226D] the value was 9.00; for `CC1(C)CC(=O)N([C@@H]2CCOc3ccc(C(=O)NC4c5ccccc5OCC4(O)C(F)(F)F)cc32)C(=N)N1` (single isomer, unassigned) [Example 234A], 7.65. The molecule `CC1(C)CC(=O)N([C@@H]2CCOc3ccc(C(=O)NC4c5ccccc5OCC4(O)C(F)(F)F)cc32)C(=N)N1` (single isomer, unassigned) [Example 234B] had a negative-log EC50 (pEC50) of 8.41. In turn, `CC1(C)CC(=O)N([C@@H]2CCOc3ccc(C(=O)NC4c5ccccc5OCC4(O)C(F)(F)F)cc32)C(=N)N1` (single isomer, unassigned) [Example 234C] had a pEC50 of 7.36.

Molecule `CCC1(CC)CC(=O)N([C@@H]2CCOc3ccc(C(=O)NC4c5ccccc5OC(C)(C)C4(C)O)cc32)C(=N)N1` (single isomer, unassigned) [Example 242A] gave a pEC50 of 9.22. As to `CCC1(CC)CC(=O)N([C@@H]2CCOc3ccc(C(=O)NC4c5ccccc5OC(C)(C)C4(C)O)cc32)C(=N)N1` (single isomer, unassigned) [Example 242B], the pEC50 is 7.98. The same measure, in the same setting: the value for `CCC1(CC)CC(=O)N(C2c3cc(C(=O)N[C@@H]4c5ccccc5OC(C)(C)[C@H]4O)ccc3CC2OC)C(=N)N1` (single isomer, unassigned) [Example 251A] was 9.40. Still for that read-out and setting: the value for `CCC1(CC)CC(=O)N(C2c3cc(C(=O)N[C@@H]4c5ccccc5OC(C)(C)[C@H]4O)ccc3CC2OC)C(=N)N1` (single isomer, unassigned) [Example 251B] was 8.82; that for `CCC1(CC)CC(=O)N(C2c3cc(C(=O)N[C@@H]4c5ccccc5OC(C)(C)[C@H]4O)ccc3CC2OC)C(=N)N1` (single isomer, unassigned) [Example 251C] was 7.07; that for `CCC1(CC)CC(=O)N([C@@H]2CCOc3ccc(C(=O)NC4c5ccc(OC)cc5OCC4(C)O)cc32)C(=N)N1` (single isomer, unassigned) [Example 258A] was 7.07.

The molecule `CCC1(CC)CC(=O)N([C@@H]2CCOc3ccc(C(=O)NC4c5ccc(OC)cc5OCC4(C)O)cc32)C(=N)N1` (single isomer, unassigned) [Example 258B] showed a pEC50 of 8.62. Still for that read-out and setting: the value for `CCC1(CC)CC(=O)N([C@@H]2CCOc3ccc(C(=O)NC4c5ccc(OC)cc5OCC4(C)O)cc32)C(=N)N1` (single isomer, unassigned) [Example 258C] was 6.65. Still for that read-out and setting: for `CCC1(CC)CC(=O)N([C@@H]2CCOc3ccc(C(=O)NC4c5ccc(OC)cc5OCC4(C)O)cc32)C(=N)N1` (single isomer, unassigned) [Example 258D] the value was 8.17; for `CCC1(CC)CC(=O)N([C@@H]2CCOc3ccc(C(=O)NC4c5c(OC)cccc5OCC4(C)O)cc32)C(=N)N1` (single isomer, unassigned) [Example 259A], 8.26. Regarding `CCC1(CC)CC(=O)N([C@@H]2CCOc3ccc(C(=O)NC4c5c(OC)cccc5OCC4(C)O)cc32)C(=N)N1` (single isomer, unassigned) [Example 259B], the negative logarithm of the EC50 (pEC50) is 7.62. Consider `CCC1(CC)CC(=O)N([C@@H]2CCOc3ccc(C(=O)NC4c5c(OC)cccc5OCC4(C)O)cc32)C(=N)N1` (single isomer, unassigned) [Example 259C], for which the pEC50 was 8.44. This pEC50 is 0.82 log units higher than that of the molecule before.

`CCC1(CC)CC(=O)N([C@@H]2CCOc3ccc(C(=O)NC4c5c(OC)cccc5OCC4(C)O)cc32)C(=N)N1` (single isomer, unassigned) [Example 259D] gave a pEC50 of 7.97. In turn, `CCC1(CC)CC(=O)N([C@@H]2CCOc3ccc(C(=O)NC4c5ccccc5CC4(O)C(F)(F)F)cc32)C(=N)N1` (single isomer, unassigned) [Example 272A] had a pEC50 of 7.20. The same measure, in the same setting: for `CCC1(CC)CC(=O)N([C@@H]2CCOc3ccc(C(=O)NC4c5ccccc5CC4(O)C(F)(F)F)cc32)C(=N)N1` (single isomer, unassigned) [Example 272B] the value was 7.84; for `CCC1(CC)CC(=O)N([C@@H]2CCOc3ccc(C(=O)NC4c5ccccc5CC4(O)C(F)(F)F)cc32)C(=N)N1` (single isomer, unassigned) [Example 272C], 9.05. On to `CCC1(CC)CC(=O)N([C@@H]2CCOc3ccc(C(=O)NC4c5ccccc5CC4(O)C(F)(F)F)cc32)C(=N)N1` (single isomer, unassigned) [Example 272D], for which the pEC50 is 8.64. Against the preceding molecule, the pEC50 is 0.41 log units lower.

Turning to `COCC1(C)CC(N2C(=N)NC(C)(C)CC2=O)c2cc(C(=O)N[C@@H]3c4ccccc4OC(C)(C)[C@H]3O)ccc2O1` (single isomer, unassigned) [Example 282A], the pEC50 was 8.11.

For the molecule `COCC1(C)CC(N2C(=N)NC(C)(C)CC2=O)c2cc(C(=O)N[C@@H]3c4ccccc4OC(C)(C)[C@H]3O)ccc2O1` (single isomer, unassigned) [Example 282B], the pEC50 was 7.39.

The test is the same for the next values; noted with them: Plasmodium falciparum, Erythrocyte, 72 h, 0.7% rings, 2% haematocrit, 72 hours at 37° C., LDH readout of parasite growth.
For `CCC1(CC)CC(=O)N([C@H]2c3cc(C(=O)NC4c5ccccc5C(F)(F)[C@@H]4O)ccc3O[C@@]2(C)COC)C(=N)N1` (stereo in doubt) [Example 291, (2R,3S)-3-(4,4-diethyl-2-imino-6-oxo-hexahydropyrimidin-1-yl)-N-[(1S,2R)-3,3-difluoro-2-hydroxy-indan-1-yl]-2-(methoxymethyl)-2-methyl-3H-benzofuran-5-carboxamide], the pEC50 was 6.62. Molecule `CCC1(CC)CC(=O)N(C2CCOc3ccc(C(=O)N[C@H]4CC(C)(C)Oc5ccccc54)cc32)C(=N)N1` (stereo partly drawn) [Example 1A, 4-(4,4-diethyl-2-imino-6-oxotetrahydropyrimidin-1(2H)-yl)-N—((S)-2,2-dimethylchroman-4-yl)chroman-6-carboxamide] showed a negative-log EC50 (pEC50) of 9.30. Compared with the last molecule, the pEC50 is 2.68 log units higher. Same read-out and setting: for `CCC1(CC)CC(=O)N(C2CCOc3ccc(C(=O)N[C@@H]4c5ccccc5OC(C)(C)[C@H]4O)cc32)C(=N)N1` (stereo partly drawn) [Example 2A, 4-(4,4-diethyl-2-imino-6-oxotetrahydropyrimidin-1(2H)-yl)-N-((3S,4R)-3-hydroxy-2,2-dimethylchroman-4-yl)chroman-6-carboxamide] the value was 9.30; for `CCC1(CC)CC(=O)N([C@@H]2CCOc3ccc(C(=O)N[C@H]4CCOc5ccccc54)cc32)C(=N)N1` [Example 3A, (R)-N-((S)-chroman-4-yl)-4-(4,4-diethyl-2-imino-6-oxotetrahydropyrimidin-1(2H)-yl)chromane-6-carboxamide], 8.66. For `CCC1(CC)CC(=O)N([C@@H]2CCOc3ccc(C(=O)N[C@@H](C)c4ccccc4)cc32)C(=N)N1` [Example 4A, (R)-4-(4,4-diethyl-2-imino-6-oxotetrahydropyrimidin-1(2H)-yl)-N-((S)-1-phenylethyl)chromane-6-carboxamide], the pEC50 was 7.06. Still for that read-out and setting: the value for `CCC1(CC)CC(=O)N([C@@H]2CCOc3ccc(C(=O)N[C@@H]4c5ccccc5C[C@H]4O)cc32)C(=N)N1` [Example 5A, (R)-4-(4,4-diethyl-2-imino-6-oxotetrahydropyrimidin-1(2H)-yl)-N-((1R,2R)-2-hydroxy-2,3-dihydro-1H-inden-1-yl)chromane-6-carboxamide] was 8.23. As for `CCC1(CC)CC(=O)N([C@@H]2CCOc3ccc(C(=O)N[C@H]4C[C@H](C(F)(F)F)Oc5ccccc54)cc32)C(=N)N1` [Example 6A, (R)-4-(4,4-diethyl-2-imino-6-oxotetrahydropyrimidin-1(2H)-yl)-N-((2R,4S)-2-(trifluoromethyl)chroman-4-yl)chromane-6-carboxamide], the pEC50 was 8.96. On the same count and under the same terms, for `CCC1(CC)CC(=O)N([C@@H]2CCOc3ccc(C(=O)N[C@@H]4C[C@@H](C(F)(F)F)Oc5ccccc54)cc32)C(=N)N1` [Example 6B, (R)-4-(4,4-diethyl-2-imino-6-oxotetrahydropyrimidin-1(2H)-yl)-N-((2S,4R)-2-(trifluoromethyl)chroman-4-yl)chromane-6-carboxamide] the value was 8.06.

`CCC1(CC)CC(=O)N([C@@H]2CCOc3ccc(C(=O)N[C@H]4CC(C)(C)Oc5ccc(F)cc54)cc32)C(=N)N1` [Example 7A, (R)-4-(4,4-diethyl-2-imino-6-oxotetrahydropyrimidin-1(2H)-yl)-N-((S)-6-fluoro-2,2-dimethylchroman-4-yl)chromane-6-carboxamide] showed a pEC50 of 9.40.

Consider `CCC1(CC)CC(=O)N([C@@H]2CCOc3ccc(C(=O)N[C@@H]4CC(C)(C)Oc5ccc(F)cc54)cc32)C(=N)N1` [Example 7B, (R)-4-(4,4-diethyl-2-imino-6-oxotetrahydropyrimidin-1(2H)-yl)-N-((R)-6-fluoro-2,2-dimethylchroman-4-yl)chromane-6-carboxamide], for which the pEC50 was 7.72.
